According to patent US8476197B2, “Aminopropenoates as fungicides” (priority 2009, dated 2013):
Marks after values point to notes of the source that are not given here.

Settings: pH 2.3
In the case of `CCOC(=O)C(C#N)=C(NC(C)C(C)C)c1cccnc1-c1ccc(OC(F)(F)F)cc1` (stereo not drawn) [Compound 1586], the “Log P” value is reported as 4.39. In the case of `CCOC(=O)C(C#N)=C(Nc1ccccc1F)c1cccnc1Cl` [Compound 1590], the “Log P” value is reported as 2.87. In the case of `CCOC(=O)C(C#N)=C(Nc1ccn(C)c1SC)c1cccnc1Cl` [Compound 1592], the “Log P” value is reported as 3.01^[c]; 3.01^[b]. For `CCOC(=O)C(C#N)=C(Nc1ccc(F)c(F)c1)c1cccnc1Cl` [Compound 1597], the “Log P” value was 3. For `CCOC(=O)C(C#N)=C(Nc1ccc(F)cc1F)c1cccnc1Cl` [Compound 1600], the “Log P” value was 2.95. With `C=CCOC(=O)C(C#N)=C(Nc1ccccc1SC)c1cccnc1Cl` [Compound 1602] the “Log P” value was 3.32^[c]; 3.32^[b]. With `CCOC(=O)C(C#N)=C(Nc1cccc(F)c1F)c1cccnc1Cl` [Compound 1604] the “Log P” value was 3. In the case of `CCOC(=O)C(C#N)=C(Nc1cc(F)ccc1F)c1cccnc1Cl` [Compound 1609], the “Log P” value is reported as 2.95. For `CCOC(=O)C(C#N)=C(Nc1cccc(F)c1C)c1cccnc1Cl` [Compound 1610], the “Log P” value was 3.26. With `CCOC(=O)C(C#N)=C(Nc1cccc(F)c1OC)c1cccnc1Cl` [Compound 1611] the “Log P” value was 3.13^[c]; 3.13^[b]. In the case of `CCNC(=O)C(C#N)=C(Nc1ccccc1SC)c1cccnc1Cl` [Compound 1616], the “Log P” value is reported as 2.85. With `CCOC(=O)C(C#N)=C(NC(C)C(C)C)c1ccc(Cl)nc1` (stereo not drawn) [Compound 1617] the “Log P” value was 3.39. For `CONC(=O)C(C#N)=C(Nc1ccccc1SC)c1cccnc1Cl` [Compound 1620], the “Log P” value was 2.19.

Same assay, conditions: pH 2.7
For `CCOC(=O)C(C#N)=C(NCc1ccc(C)c(C)n1)c1cn(C)nc1C(Cl)Cl` [Compound 1575], the “Log P” value was 2.07^[a]. In the case of `CCOC(=O)C(C#N)=C(NC(C)C(C)OC)c1cn(C)nc1C(Cl)Cl` (stereo not drawn) [Compound 1576], the “Log P” value is reported as 2.98^[a]. For `CCOC(=O)C(C#N)=C(NC(C)C(C)CC)c1cn(C)nc1C(Cl)Cl` (stereo not drawn) [Compound 1577], the “Log P” value was 3.8^[a]. In the case of `CCOC(=O)C(C#N)=C(NC(C)c1nccs1)c1cc(Cl)sc1Cl` (stereo not drawn) [Compound 1578], the “Log P” value is reported as 3.58^[a]. With `CCOC(=O)C(C#N)=C(NC(C)C(C)C)c1cc(Cl)sc1Cl` (stereo not drawn) [Compound 1580] the “Log P” value was 4.68^[a]. With `CCOC(=O)C(C#N)=C(NC1CCC1)c1cc(Cl)sc1Cl` [Compound 1581] the “Log P” value was 4.26^[a]. In the case of `CONC(=O)C(C#N)=C(NC(C)c1ccccn1)c1cccnc1Cl` (stereo not drawn) [Compound 1583], the “Log P” value is reported as 1.46^[a]. With `CCNC(=O)C(C#N)=C(NC(C)c1ccccn1)c1cccnc1Cl` (stereo not drawn) [Compound 1584] the “Log P” value was 1.93^[a]. For `CCOC(=O)C(C#N)=C(NC(C)C1CC1)c1cc(Cl)sc1Cl` (stereo not drawn) [Compound 1587], the “Log P” value was 4.43^[a]. In the case of `CCOC(=O)C(C#N)=C(NC(C)COC)c1cc(Cl)sc1Cl` (stereo not drawn) [Compound 1588], the “Log P” value is reported as 3.78^[a]. With `CCOC(=O)C(C#N)=C(NC(C)C1CCC1)c1cc(Cl)sc1Cl` (stereo not drawn) [Compound 1589] the “Log P” value was 5.03^[a]. With `CC(C)C(C)NC(=C(C#N)C(=O)NCCF)c1cccnc1Cl` (stereo not drawn) [Compound 1593] the “Log P” value was 2.76^[a]. In the case of `CC(NC(=C(C#N)C(=O)N1CCSC1C)c1cccnc1Cl)c1nccs1` (stereo not drawn) [Compound 1594], the “Log P” value is reported as 2.76^[a]. For `CC(NC(=C(C#N)C(=O)N1CCOCC1)c1cccnc1Cl)c1nccs1` (stereo not drawn) [Compound 1595], the “Log P” value was 1.84^[a]. With `COC(=O)CNC(=O)C(C#N)=C(NC(C)c1nccs1)c1cccnc1Cl` (stereo not drawn) [Compound 1596] the “Log P” value was 1.9^[a]. In the case of `CCONC(=O)C(C#N)=C(NC(C)c1nccs1)c1cccnc1Cl` (stereo not drawn) [Compound 1598], the “Log P” value is reported as 1.8^[a]. In the case of `CC(NC(=C(C#N)C(=O)N1CCCO1)c1cccnc1Cl)c1nccs1` (stereo not drawn) [Compound 1599], the “Log P” value is reported as 1.9^[a]. In the case of `CCOC(=O)C(C#N)=C(NC(C)C(C)OC)c1cc(Cl)sc1Cl` (stereo not drawn) [Compound 1603], the “Log P” value is reported as 4.02^[a]. For `CCOC(=O)C(C#N)=C(NC1CCCc2cccnc21)c1cccnc1Cl` (stereo not drawn) [Compound 1605], the “Log P” value was 3^[a]. With `CCOC(=O)C(C#N)=C(NC(C)C1CCCC1)c1cccnc1Cl` (stereo not drawn) [Compound 1606] the “Log P” value was 3.9^[a]. With `CCOC(=O)C(C#N)=C(NC1(C)CCC1)c1cccnc1Cl` [Compound 1607] the “Log P” value was 3.11^[a]. With `CCOC(=O)C(C#N)=C(NC(C)c1ccn[nH]1)c1cccnc1Cl` (stereo not drawn) [Compound 1608] the “Log P” value was 2.1^[a]. In the case of `CC(C)C(C)NC(=C(C#N)C(=O)N1CCCO1)c1cccnc1Cl` (stereo not drawn) [Compound 1612], the “Log P” value is reported as 2.55^[a]. In the case of `COC1(NC(=O)C(C#N)=C(NC(C)C(C)C)c2cccnc2Cl)CC1` (stereo not drawn) [Compound 1613], the “Log P” value is reported as 2.75^[a]. With `CC(C)C(C)NC(=C(C#N)C(=O)NN(C)C)c1cccnc1Cl` (stereo not drawn) [Compound 1614] the “Log P” value was 2.08^[a]. For `CC(C)C(C)NC(=C(C#N)C(=O)N1CCSC1C)c1cccnc1Cl` (stereo not drawn) [Compound 1615], the “Log P” value was 3.6^[a]. With `CC(C)C(C)NC(=C(C#N)C(=O)N1CCSC1)c1cccnc1Cl` (stereo not drawn) [Compound 1618] the “Log P” value was 3.1^[a]. With `CON=C(C)NC(=O)C(C#N)=C(NC(C)C(C)C)c1cccnc1Cl` (stereo not drawn) [Compound 1619] the “Log P” value was 1.88^[a]. In the case of `CCOC(=O)C(C#N)=C(NC1CCC1)c1ccnc(C(F)(F)F)c1Cl` [Compound 1621], the “Log P” value is reported as 3.78^[a]. In the case of `CCOC(=O)C(C#N)=C(NC(C)C1CC1)c1ccnc(C(F)(F)F)c1Cl` (stereo not drawn) [Compound 1622], the “Log P” value is reported as 3.85^[a]. For `CCOC(=O)C(C#N)=C(NC(C)COC)c1ccnc(C(F)(F)F)c1Cl` (stereo not drawn) [Compound 1623], the “Log P” value was 3.46^[a]. In the case of `CCOC(=O)C(C#N)=C(NC(C)C1CCCO1)c1ccnc(C(F)(F)F)c1Cl` (stereo not drawn) [Compound 1624], the “Log P” value is reported as 3.62^[a]. For `CCOC(=O)C(C#N)=C(NC(C)c1ccccn1)c1ccnc(C(F)(F)F)c1Cl` (stereo not drawn) [Compound 1625], the “Log P” value was 3.33^[a]. With `CCOC(=O)C(C#N)=C(NC(C)c1nccs1)c1ccnc(C(F)(F)F)c1Cl` (stereo not drawn) [Compound 1626] the “Log P” value was 3.46^[a]. With `CCOC(=O)C(C#N)=C(NC(C)C(C)C)c1ccnc(C(F)(F)F)c1Cl` (stereo not drawn) [Compound 1627] the “Log P” value was 4.18^[a]. For `CNN(C)C(=O)C(C#N)=C(NC(C)C(C)C)c1cccnc1Cl` (stereo not drawn) [Compound 1628], the “Log P” value was 1.3^[a]. For `CCOC(=O)C(C#N)=C(NC(C)C1=NCCS1)c1cccnc1Cl` (stereo not drawn) [Compound 1629], the “Log P” value was 2.5^[a]. With `CCOC(=O)C(C#N)=C(NC1CCCCC1)c1cc(Cl)sc1Cl` [Compound 1630] the “Log P” value was 4.92^[a]. With `CCOC(=O)C(C#N)=C(NC(C)C(=O)NC1CCCCC1)c1cc(Cl)sc1Cl` (stereo not drawn) [Compound 1631] the “Log P” value was 3.83^[a]. With `CCOC(=O)C(C#N)=C(NC(C)C(=O)NC)c1cc(Cl)sc1Cl` (stereo not drawn) [Compound 1632] the “Log P” value was 2.46^[a]. In the case of `CCOC(=O)C(C#N)=C(NC(C)C(C)=NOC)c1cccnc1Cl` (stereo not drawn) [Compound 1633], the “Log P” value is reported as 2.8^[a]. For `CCOC(=O)C(C#N)=C(NC1CC1C1CC1)c1cccnc1Cl` (stereo not drawn) [Compound 1634], the “Log P” value was 3.13^[a]. For `CCOC(=O)C(C#N)=C(NC1CC1C(C)C)c1cccnc1Cl` (stereo not drawn) [Compound 1635], the “Log P” value was 3.53^[a]. With `CCON=C(C)C(C)NC(=C(C#N)C(=O)OCC)c1cccnc1Cl` (stereo not drawn) [Compound 1636] the “Log P” value was 3.29^[a]. In the case of `CCOC(=O)C(C#N)=C(NC(C)c1nccn1C)c1cccnc1Cl` (stereo not drawn) [Compound 1637], the “Log P” value is reported as 0.93^[a]. In the case of `CCOC(=O)C(C#N)=C(NC(C)c1cc(C(F)(F)F)c(Cl)cn1)c1cccnc1Cl` (stereo not drawn) [Compound 1638], the “Log P” value is reported as 3.9^[a]. In the case of `CCOC(=O)C(C#N)=C(NC(C)c1cc(Cl)cc(Cl)n1)c1cccnc1Cl` (stereo not drawn) [Compound 1639], the “Log P” value is reported as 3.7^[a]. With `CCOC(=O)C(C#N)=C(NC(C)C1CCC1)c1ccnn1C(F)F` (stereo not drawn) [Compound 1640] the “Log P” value was 3.56^[a]. In the case of `CCOC(=O)C(C#N)=C(NC1(CC)CC1)c1cccnc1Cl` [Compound 1641], the “Log P” value is reported as 3.13^[a]. For `CCOC(=O)C(C#N)=C(NC1(CC2CC2)CC1)c1cccnc1Cl` [Compound 1642], the “Log P” value was 3.53^[a]. With `CCOC(=O)C(C#N)=C(NC(C)Cc1ccccc1)c1cccnc1Cl` (stereo not drawn) [Compound 1643] the “Log P” value was 3.5^[a]. With `CCOC(=O)C(C#N)=C(NC(C)c1nccs1)c1ccnn1C(F)F` (stereo not drawn) [Compound 1644] the “Log P” value was 2.51^[a]. For `CCOC(=O)C(C#N)=C(NC(C)C(C)C)c1ccnn1C(F)F` (stereo not drawn) [Compound 1645], the “Log P” value was 3.27^[a]. With `CCOC(=O)C(C#N)=C(NC(C)c1ccccn1)c1ccnn1C(F)F` (stereo not drawn) [Compound 1646] the “Log P” value was 2.55^[a]. In the case of `CCOC(=O)C(C#N)=C(NC(C)C1CC1)c1ccnn1C(F)F` (stereo not drawn) [Compound 1647], the “Log P” value is reported as 3.01^[a]. With `CCOC(=O)C(C#N)=C(NC(C)C1CCC1)c1c(CC)nn(C)c1Cl` (stereo not drawn) [Compound 1648] the “Log P” value was 3.94^[a]. With `CCOC(=O)C(C#N)=C(NC(C)c1c(Cl)cccc1Cl)c1cccnc1Cl` (stereo not drawn) [Compound 1649] the “Log P” value was 3.8^[a].

Same assay, conditions: pH 7.5
With `CCOC(=O)C(C#N)=C(NC(C)C(C)C)c1cccnc1-c1ccc(OC(F)(F)F)cc1` (stereo not drawn) [Compound 1586] the “Log P” value was 4.41. In the case of `CCOC(=O)C(C#N)=C(Nc1ccccc1F)c1cccnc1Cl` [Compound 1590], the “Log P” value is reported as 2.85. With `CCOC(=O)C(C#N)=C(Nc1ccn(C)c1SC)c1cccnc1Cl` [Compound 1592] the “Log P” value was 3.01^[c]; 3.01^[b]. In the case of `CCOC(=O)C(C#N)=C(Nc1ccc(F)c(F)c1)c1cccnc1Cl` [Compound 1597], the “Log P” value is reported as 2.96. With `CCOC(=O)C(C#N)=C(Nc1ccc(F)cc1F)c1cccnc1Cl` [Compound 1600] the “Log P” value was 2.9. With `C=CCOC(=O)C(C#N)=C(Nc1ccccc1SC)c1cccnc1Cl` [Compound 1602] the “Log P” value was 3.32^[c]; 3.32^[b]. In the case of `CCOC(=O)C(C#N)=C(Nc1cccc(F)c1F)c1cccnc1Cl` [Compound 1604], the “Log P” value is reported as 2.88. With `CCOC(=O)C(C#N)=C(Nc1cc(F)ccc1F)c1cccnc1Cl` [Compound 1609] the “Log P” value was 2.83. For `CCOC(=O)C(C#N)=C(Nc1cccc(F)c1C)c1cccnc1Cl` [Compound 1610], the “Log P” value was 3.24. For `CCOC(=O)C(C#N)=C(Nc1cccc(F)c1OC)c1cccnc1Cl` [Compound 1611], the “Log P” value was 3.13^[c]; 3.13^[b]. In the case of `CCNC(=O)C(C#N)=C(Nc1ccccc1SC)c1cccnc1Cl` [Compound 1616], the “Log P” value is reported as 2.82. In the case of `CCOC(=O)C(C#N)=C(NC(C)C(C)C)c1ccc(Cl)nc1` (stereo not drawn) [Compound 1617], the “Log P” value is reported as 3.41. With `CONC(=O)C(C#N)=C(Nc1ccccc1SC)c1cccnc1Cl` [Compound 1620] the “Log P” value was 1.96.

Settings: LogP, preparation examples; HPLC method ([a], [b] or [c]) not stated
For `CC(C)NC(=O)/C(C#N)=C(\NC(C)c1nccs1)c1sccc1Br` (stereo not drawn), the chromatographic logP was 3.11.
